The text below walks through data of US20250296951A1, “GPX4 Inhibitors and Senolytic Compounds and Uses Thereof” (Rubedo Life Sciences, Inc., priority 2024, published 2025).

Each structure is given as a SMILES string. pIC50: −log10 of the molar value.

Holding throughout (format): cell-based
The test system of one assay is senescent A549 cells. In words: Senescence assay, viability of senescent A549 cells. The conditions noted are these: Homo sapiens; chemotherapy-induced senescent A549 cells, 24-72 hours with compound, viability by CellTiter-Glo or XTT; read-out: A549_SEN IC50 (Absolute IC50 average). The method, then: (§1) Cells were maintained in DMEM media (high glucose, 4 mM L-glutamine, no sodium pyruvate) supplemented with 10% fetal bovine serum in a humidified incubator at 37° C. with 5% carbon dioxide. Senescence was induced via treatment with a sublethal concentration of chemotherapy (bleomycin, gemcitabine, doxorubicin, 5-fluorouridine), followed by a rest period without chemotherapy similarly to what is reported by others in the field (e.g., Aoshiba et al., 2003 Eur Respir J 22:436-443). Senescence was qualified by low EdU (5-ethynyl-2′-deoxyuridine) incorporation and high SA-β-Gal (senescence-associated beta-galactosidase) staining compared to proliferating untreated cells. Senescent cells were plated into 96-well plates at a density of 5-15,000 cells/well. The next day, compounds were added in duplicate across ten different concentrations spanning roughly four Log 10 units. Cells were incubated with the compounds for 24-72 hours, at which point viability is quantified using CellTiter-Glo (Promega) or XTT (R&D Systems). The viability for treated cells was determined relative to untreated control cells. The log of the compound concentration vs. normalized mean viability was a fit to a four parameters Hill function with variable slope. The bottom was constrained to be greater than zero. The X mean value for Y=50 interpolated to determine the absolute IC50. […]

For another assay, the system named is senescent NHDF cells. In words: Senescence assay, viability of senescent NHDF cells. The conditions noted are these: Homo sapiens; chemotherapy-induced senescent NHDF cells, 24-72 hours with compound, viability by CellTiter-Glo or XTT; read-out: NHDF_SEN IC50 (Absolute IC50 average). The procedure: as §1
Another assay deals with senescent IMR90 cells. In words: Senescence assay, viability of senescent IMR90 cells. Conditions: Homo sapiens, IMR-90; chemotherapy-induced senescent IMR90 cells, 24-72 hours with compound, viability by CellTiter-Glo or XTT; read-out: IMR90_SEN IC50 (Absolute IC50 average). The procedure:
as §1

The next assay has as its system senescent HEPG2 cells. In words: Senescence assay, viability of senescent HEPG2 cells. Conditions: Homo sapiens; chemotherapy-induced senescent HEPG2 cells, 24-72 hours with compound, viability by CellTiter-Glo or XTT; read-out: HEPG2_SEN IC50 (Absolute IC50 average). The method, then:
as §1

In the case of `C#CC(F)(F)[C@]1(O)CC[C@H]2[C@@H]3CCC4=CC(=O)CCC4=C3[C@@H](c3ccc(O)cc3)C[C@@]21C` [Compound 1, (1S,3aS,3bS,10R,11aS)-1-(1,1-difluoroprop-2-yn-1-yl)-1-hydroxy-10-(4-hydroxyphenyl)-11a-methyl-2H,3H,3aH,3bH,4H,5H,8H,9H,10H,11H-cyclopenta[a]phenanthren-7-one], the pIC50 – broadly, −log10 of the IC50, conventionally taken in molar units – is 5.00 to 6.00 with senescent A549 cells, 6.00 to 7.00 with senescent NHDF cells, 6.00 to 7.00 with senescent IMR90 cells and 6.00 to 7.00 in the assay on senescent HEPG2 cells.

On to `C#CC(=O)[C@]1(O)CC[C@H]2[C@@H]3CCC4=CC(=O)CCC4=C3[C@@H](c3ccc(C4CC4)cc3)C[C@@]21C` [Compound 2, (8S,11R,13S,14S,17S)-11-(4-cyclopropylphenyl)-17-hydroxy-13-methyl-17-propioloyl-1,2,6,7,8,11,12,13,14,15,16,17-dodecahydro-3H-cyclopenta[a]phenanthren-3-one], for which the pIC50 in the assay with senescent NHDF cells was 5.00 to 6.00.
